For 40 compounds, IC50 results are on record in patent publication US12116358B2, “Substituted indoles and methods of use thereof” (EPIZYME, INC., priority 2018, dated 2024).

Experiment [1] has as its system H3K36me3 in A549 cells. In words: In-Cell Western (ICW) assay of SETD2 inhibitors (A549 assay). Format: cell-based, human. The settings on record: A549 cells, read-out: SETD2 A549. A digest of the protocol:
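A549 cells seeded at 4,000/well onto compound and incubated 3 days at 37° C. Methanol-fixed cells stained overnight at 4° C with anti-H3K36me3 (1:1000), then IRDye 800CW secondary with DRAQ5 DNA counterstain. Plates read by Licor imaging at 700 and 800 channels.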

In experiment [2] the target is T1, SETD2(1434-1711) (Homo sapiens, UniProt Q9BYW2).
T1 construct: SETD2 (1434-1711) Assay; catalogue N/A
T1 sequence (Q9BYW2 1434-1711): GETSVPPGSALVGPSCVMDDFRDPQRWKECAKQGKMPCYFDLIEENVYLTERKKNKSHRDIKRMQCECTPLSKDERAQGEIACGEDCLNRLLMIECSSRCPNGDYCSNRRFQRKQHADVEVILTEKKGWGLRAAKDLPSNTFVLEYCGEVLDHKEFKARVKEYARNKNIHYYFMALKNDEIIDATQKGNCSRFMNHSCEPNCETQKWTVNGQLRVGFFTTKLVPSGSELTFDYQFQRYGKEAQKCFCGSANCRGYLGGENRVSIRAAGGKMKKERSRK
Put plainly: SETD2 (1434-1711) assay. The format is biochemical. To be noted: read-out: SETD2 (1434-1711).

Where two headings read alike, the source gives them in different places.

`Cc1ccc(F)c2cc(C(=O)NC3CCCC(N4CCn5nc(C(F)(F)F)nc5C4)C3)[nH]c12` (centres unmarked) [compound 1066]: the IC50 in experiment [1] is greater than 2 µM; in experiment [2] it was 5.5 µM.

For `CCN(CC)CCS(=O)(=O)N1CCN(c2cccc(NC(=O)c3cc4cccc(C)c4[nH]3)c2)CC1` [compound 405], the values for the IC50 in experiment [1] and in experiment [2] were 2.8 µM and 0.4 µM, respectively.

With `Cc1ccc(F)c2cc(C(=O)Nc3cc(Cl)cc(N4CCC(CCCN5CCCC5)CC4)c3)[nH]c12` [compound 1158], the figures for the IC50 in experiment [1] and in experiment [2] were 0.9 µM and 0.006 µM, respectively.

In the case of `CNC1CCN(c2cccc(NC(=O)c3cc4c(F)ccc(C)c4[nH]3)c2)C1` (centres unmarked) [compound 128], the IC50 in experiment [1] (Homo sapiens) worked out at 0.3 µM; in experiment [2], 0.01 µM.

For the compound `CC(=O)N(C)C1CCN(c2cccc(NC(=O)c3cc4c(F)ccc(C)c4[nH]3)c2)CC1` [compound 78], the IC50 was found to be 0.2 µM in experiment [1] and 0.04 µM in experiment [2].

With `Cc1ccc(F)c2cc(C(=O)N[C@@H]3CCC[C@H](N4CCCC5(CCNC5=O)C4)C3)[nH]c12` (some centres unmarked) [compound 882], the results for the IC50 in experiment [1] (Homo sapiens) and in experiment [2] were 0.7 µM and 0.1 µM, respectively.

Take `CC(=O)N1CC2CC1CN2c1cccc(NC(=O)c2cc3c(F)ccc(C)c3[nH]2)c1` (centres unmarked) [compound 292]: the IC50 came to 1.1 µM in experiment [1] and 0.7 µM in experiment [2].

Consider `CCN(C1CCN(C2CCCC(NC(=O)c3cc4c(F)ccc(C)c4[nH]3)C2)C1)S(C)(=O)=O` (centres unmarked) [compound 1131], for which the figures for the IC50 in experiment [1] and in experiment [2] were 0.04 µM and 0.006 µM, respectively.

Take `CCC(=O)N1CCN(C2CCCC(NC(=O)c3cc4c(F)ccc(C)c4[nH]3)C2)CC1C(F)(F)F` (centres unmarked) [compound 1164]: the IC50 in experiment [1] is greater than 2 µM; in experiment [2], 2.1 µM.

`Cc1cccc2cc(C(=O)NCCc3cc(Cl)ccc3N3CCOCC3)[nH]c12` [compound 622]: the figures for the IC50 in experiment [1] and in experiment [2] were greater than 25 µM and greater than 200 µM, respectively.

For the compound `Cc1cccc2cc(C(=O)NC3C(=O)NCCc4ccccc43)[nH]c12` (centres unmarked) [compound 482], the IC50 in experiment [1] was 10.2 µM; in experiment [2] it was 2.2 µM.

For the compound `Cc1ccc(F)c2cc(C(=O)Nc3cccc(C4CCNC4)c3)[nH]c12` (centres unmarked) [compound 283], the IC50 in experiment [1] (Homo sapiens) was determined as 1 µM; in experiment [2], 0.04 µM.

With `Cc1ccc(F)c2cc(C(=O)NC3CCCc4cnccc43)[nH]c12` (centres unmarked) [compound 403], the IC50 in experiment [1] is 2.7 µM; in experiment [2], 2.5 µM.

Turning to `Cc1ccc(F)c2cc(C(=O)NC3CCCN(CCC(=O)N(C)C)C3)[nH]c12` (centres unmarked) [compound 378], the IC50 in experiment [1] is greater than 2 µM; in experiment [2] it was greater than 10 µM.

`Cc1cccc2cc(C(=O)Nc3ccn4ccnc4c3)[nH]c12` [compound 578]: the IC50 in experiment [1] was greater than 25 µM; in experiment [2] it was 22.5 µM.

For the compound `CC(=O)N1CC2CCC(C1)N2C1CCCC(NC(=O)c2cc3c(F)ccc(C)c3[nH]2)C1` (centres unmarked) [compound 952], the IC50 was determined as 0.4 µM in experiment [1] and 0.04 µM in experiment [2].

As to `Cc1ccc(F)c2cc(C(=O)Nc3cccc(-c4cccc(CN(C)C)c4)c3)[nH]c12` [compound 266], the IC50 in experiment [1] (Homo sapiens) stood at 0.7 µM; in experiment [2] it was 0.06 µM.

Take `Cc1ccc(F)c2cc(C(=O)Nc3cccc(N4CCC5(CCNCC5)C4)c3)[nH]c12` [compound 189]: the IC50 amounted to 0.4 µM in experiment [1] (Homo sapiens) and 0.006 µM in experiment [2].

Regarding `Cc1ccc(F)c2cc(C(=O)Nc3cccc4c3cnn4[C@H]3CC[C@H](N(C)C)CC3)[nH]c12` [Cpd. No. 213, N-(1-((1r,4r)-4-(dimethylamino)cyclohexyl)-1H-indazol-4-yl)-4-fluoro-7-methyl-1H-indole-2-carboxamide], the IC50 in experiment [1] (Homo sapiens) stood at 0.5 µM; in experiment [2], 0.007 µM.

As for `Cc1ccc(F)c2cc(C(=O)NC3CCCN(C4CCN(C)C(=O)C4)C3)[nH]c12` (centres unmarked) [compound 367], the IC50 was greater than 2 µM in experiment [1] and 4.2 µM in experiment [2].

For the compound `Cc1cc(C2CCC(NC(=O)Cc3cccnc3)CC2)cnc1C(NC(=O)c1cc2cccc(C)c2[nH]1)C1CC1` (centres unmarked) [compound 423], the IC50 in experiment [1] was 3.8 µM; in experiment [2], 0.6 µM.

Regarding `Cc1cc(C(=O)N[C@H]2CC[C@H]2N)cnc1C(NC(=O)c1cc2cccc(C)c2[nH]1)C1CC1` (some centres unmarked) [compound 451], the values for the IC50 in experiment [1] (Homo sapiens) and in experiment [2] were 5.6 µM and 0.4 µM, respectively.

As to `Cc1ccc(F)c2cc(C(=O)Nc3cccc(-c4ccnn4C)c3)[nH]c12` [compound 239], the IC50 in experiment [1] turned out to be 0.6 µM; in experiment [2] it was 0.2 µM.

Regarding `Cc1cccnc1C(NC(=O)c1cc2cccc(C)c2[nH]1)C(C)C` (centres unmarked) [compound 474], the IC50 came out at 8.9 µM in experiment [1] (Homo sapiens) and 4.2 µM in experiment [2].

Regarding `CCN(C(=O)CO)C1CCN(C2CCCC(NC(=O)c3cc4c(F)ccc(C)c4[nH]3)C2)C1` (centres unmarked) [compound 1120], the IC50 in experiment [1] is greater than 2 µM; in experiment [2], 5.9 µM.

For the compound `CCN(C(=O)CO)C1CCN(C2CCCC(NC(=O)c3cc4c(F)ccc(C)c4[nH]3)C2)C1` (centres unmarked) [compound 1053], the IC50 in experiment [1] was determined as 0.4 µM; in experiment [2], 0.03 µM.

Take `Cc1ccc(F)c2cc(C(=O)Nc3cc(F)cc(C4CCN(C5CC(=O)N(C)C5)C4)c3)[nH]c12` (centres unmarked) [compound 89]: the IC50 in experiment [1] (Homo sapiens) is 0.2 µM; in experiment [2] it was 0.03 µM.

Consider `CCc1cccnc1C(NC(=O)c1cc2cccc(C)c2[nH]1)C1CC1` (centres unmarked) [compound 521], for which the IC50 in experiment [1] (Homo sapiens) was 19.9 µM; in experiment [2], 6.9 µM.

`Cc1cc(CCN2CCN(C)CC2)cnc1C(NC(=O)c1cc2cccc(C)c2[nH]1)C1CC1` (centres unmarked) [compound 435]: the IC50 in experiment [1] (Homo sapiens) was 4.7 µM; in experiment [2] it was 0.7 µM.

Consider `COCC(=O)N(C)C1CCN(C2CCCC(NC(=O)c3cc4c(F)ccc(C)c4[nH]3)C2)C1` (centres unmarked) [compound 1160], for which the IC50 in experiment [1] is greater than 2 µM; in experiment [2], 4.3 µM.

Consider `Cc1ccc(F)c2cc(C(=O)Nc3cccc(N4CCN(C)CC4C)c3)[nH]c12` (centres unmarked) [compound 318], for which the IC50 in experiment [1] (Homo sapiens) turned out to be 1.4 µM; in experiment [2] it was 0.2 µM.

With `Cc1cccc2cc(C(=O)NC3CC(=O)Nc4ccccc4C3)[nH]c12` (centres unmarked) [compound 520], the IC50 in experiment [1] stood at 19.8 µM; in experiment [2] it was 12.3 µM.

`Cc1ccc(F)c2cc(C(=O)Nc3cccc(N4CCC(N5CCN(C)CC5)CC4)c3)[nH]c12` [compound 152]: the IC50 in experiment [1] (Homo sapiens) was 0.3 µM; in experiment [2], 0.01 µM.

Consider `Cc1ccc(F)c2cc(C(=O)N[C@@H]3CCC[C@H](c4ccncn4)C3)[nH]c12` [compound 1003], for which the IC50 turned out to be 0.2 µM in experiment [1] (Homo sapiens) and 0.03 µM in experiment [2].

Consider `Cc1ccc(F)c2cc(C(=O)Nc3cccc(C4COC4)c3)[nH]c12` [compound 224], for which the values for the IC50 in experiment [1] and in experiment [2] were 0.5 µM and 0.2 µM, respectively.

For the compound `Cc1ccc(F)c2cc(C(=O)Nc3cc(F)cc(N4CCC(N(C)CCF)C4)c3)[nH]c12` (centres unmarked) [compound 47], the results for the IC50 in experiment [1] and in experiment [2] were 0.1 µM and 0.01 µM, respectively.

For `Cc1cccc2cc(C(=O)Nc3ccc4ccccc4c3)[nH]c12` [compound 526], the IC50 in experiment [1] (Homo sapiens) was determined as 22.6 µM; in experiment [2], 1.9 µM.

`Cc1ccc(F)c2cc(C(=O)NC3CCCC(N4CCC(N(CCO)S(C)(=O)=O)C4)C3)[nH]c12` (centres unmarked) [compound 1151]: the values for the IC50 in experiment [1] and in experiment [2] were greater than 2 µM and 5.8 µM, respectively.

`Cc1ccc(F)c2cc(C(=O)NC3CCCC(N4CCn5c(nccc5=O)C4)C3)[nH]c12` (centres unmarked) [compound 1165]: the IC50 in experiment [1] was greater than 2 µM; in experiment [2], 3.5 µM.

As for `Cc1ccc(F)c2cc(C(=O)Nc3cc(F)cc(N4CCC(N5CCN(C(=O)CN(C)C)CC5)C4)c3)[nH]c12` (centres unmarked) [compound 39], the IC50 in experiment [1] is 0.09 µM; in experiment [2] it was 0.004 µM.
